Data from article PMC5478869, “New Hydroxycinnamic Acid Esters as Novel 5-Lipoxygenase Inhibitors That Affect Leukotriene Biosynthesis” (Mediators of Inflammation, 2017).

Molecular target: T1, platelet 12-lipoxygenase (12-LO) (Homo sapiens, UniProt P18054)
T1 construct: endogenous in cells; host or cells: platelets isolated from platelet-rich plasma
T1 sequence (P18054 1-663): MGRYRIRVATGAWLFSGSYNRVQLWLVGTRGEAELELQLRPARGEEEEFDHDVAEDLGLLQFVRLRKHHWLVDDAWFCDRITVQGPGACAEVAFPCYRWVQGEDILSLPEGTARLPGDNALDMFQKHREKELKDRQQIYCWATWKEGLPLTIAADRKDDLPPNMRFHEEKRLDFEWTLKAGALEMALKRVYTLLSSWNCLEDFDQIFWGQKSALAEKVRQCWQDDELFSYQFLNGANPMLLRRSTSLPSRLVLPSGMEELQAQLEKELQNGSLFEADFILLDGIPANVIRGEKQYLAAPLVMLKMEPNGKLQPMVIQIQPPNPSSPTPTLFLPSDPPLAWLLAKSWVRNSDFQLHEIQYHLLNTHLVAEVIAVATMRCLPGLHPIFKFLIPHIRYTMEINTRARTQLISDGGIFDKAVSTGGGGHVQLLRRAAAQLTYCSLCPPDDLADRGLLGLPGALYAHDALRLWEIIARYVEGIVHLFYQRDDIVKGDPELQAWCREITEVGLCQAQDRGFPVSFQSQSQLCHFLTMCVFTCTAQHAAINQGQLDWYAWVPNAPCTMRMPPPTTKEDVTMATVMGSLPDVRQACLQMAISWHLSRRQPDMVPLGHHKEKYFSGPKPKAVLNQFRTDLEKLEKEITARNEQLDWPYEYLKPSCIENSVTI
Assay: Platelet activation (A23187), biosynthesis of 12-HETE
Assay type: cell-based
Settings: 10 μM A23187 5 min
Description: Polymorphonuclear leukocytes (PMNL) were isolated as previously described. Briefly, whole blood was collected (with anticoagulant citrate dextrose (ACD)) and then centrifuged at 500 g for 10 min. Platelet-rich plasma (PRP) was set aside for platelet isolation (see below), and erythrocytes were removed by dextran sedimentation. After a centrifugation step at 900 g × 20 min at room temperature on a lymphocyte separation medium cushion (density, 1.077 g/ml) (Wisent), PMNL were obtained (>96%) followed by hypotonic lysis of the remaining erythrocytes. PMNL were counted and resuspended at 10^7 cells/ml in HBSS supplemented with 1.6 mM CaCl2. PRP was processed as previously described for platelet isolation. Briefly, PRP was centrifuged at 400 g for 2 min at room temperature to remove the remaining erythrocytes. The supernatant was then centrifuged at 1300g for 10 min to pellet platelets. Cells were resuspended in Tyrode Buffer pH 7.4 (134 mM NaCl, 2.9 mM KCl, 0.34 mM Na2HPO4, 12 mM NaHCO3, 20 mM HEPES, 1 mM MgCl2, 5 mM glucose, and 0.5 mg/ml BSA) at 3 × 10^8 cells/ml in the presence of 5 mM CaCl2.
Platelets (3 × 10^8 cells/ml) were preincubated with various test compounds at indicated concentrations for 5 min at 37°C. Platelet activation was initiated with the addition of 10 μM of calcium ionophore A23187 (Sigma-Aldrich) followed by a 5 min incubation time at 37°C. Reactions were stopped with the addition of two volumes of cold MeOH:MeCN (1 : 1) containing PGB2 (100 ng/ml) as internal standard. Samples were stored overnight at −20°C and were then centrifuged, the supernatant was dried under nitrogen, and the samples were resuspended in 30% methanol and analyzed by RP-HPLC as indicated above.
Figure 5 The inhibitory effects of the test compounds of the biosynthesis of 5-LO products in stimulated whole blood (a) and the biosynthesis of 12-lipoxygenase products in platelets (b). (a) Whole blood was incubated in presence of various compounds (1 μM and 5 μM) or with their diluent (control, DMSO 0.5%) for 5 min, then stimulated with opsonized zymosan (5 mg/ml) for 30 min at 37°C. Blood was then centrifuged and plasma was collected and added to 3.5 volumes of MeOH:CH3CN (1 : 1). Samples were processed for analysis by RP-HPLC for total 5-LO products quantification. Total 5-LO products measured represent the sum of LTB4, its trans isomers, 20-COOH and 20-OH-LTB4, and 5-hydroxyeicosatetraenoic acid. (b) Platelets were incubated for 5 min in presence of test compounds (1 μM and 3 μM) then biosynthesis of 12-HETE was initiated with the addition of 10 μM of calcium ionophore A23187. Reactions were stopped with the addition of two volumes of MeOH:MeCN (1 : 1 v/v). Samples were processed for analysis by RP-HPLC for 12-hydroxyeicosatetraenoic acid (12-HETE) quantification. ^∗Different from control as determined by one-way ANOVA with Dunnett's multiple comparison test (p < 0.05). Data are expressed as means ± SEM of at least 3 independent experiments.
Having identified compounds that inhibit the biosynthesis of lipid mediators generated via the 5-LO pathway, their ability to inhibit platelet 12-lipoxygenase (12-LO) was assessed to determine whether they show specificity.

Compound | Inhibition of biosynthesis of 12-HETE in platelets (3 μM compound) | Inhibition of biosynthesis of 12-HETE in platelets (1 μM compound)
C=C(C)CCOC(=O)/C=C/c1ccc(O)c(O)c1 [Compound 9] | near-complete inhibition | significantly inhibited the biosynthesis of 12-HETE
O=C(/C=C/c1ccc(O)c(O)c1)OCCc1ccc(F)cc1 [Compound 14] | near-complete inhibition | significantly inhibited the biosynthesis of 12-HETE
Cc1ccc(CCOC(=O)/C=C/c2ccc(O)c(O)c2)cc1 [Compound 15] | near-complete inhibition | significantly inhibited the biosynthesis of 12-HETE
COc1ccc(CCOC(=O)/C=C/c2ccc(O)c(O)c2)cc1 [Compound 16] | significant inhibition | failed to significantly affect the biosynthesis of 12-HETE

Now from value to compound, other results behind:

Inhibition of biosynthesis of 12-HETE in platelets (3 μM compound) | Compound | Inhibition of biosynthesis of 12-HETE in platelets (1 μM compound)
near-complete inhibition | O=C(/C=C/c1ccc(O)c(O)c1)OCCc1ccccc1 [CAPE (2), Caffeic acid phenethyl ester, reference compound] | significantly inhibited the biosynthesis of 12-HETE
near-complete inhibition | O=C(/C=C/c1ccc(O)c(O)c1)OCCCc1ccccc1 [Compound 13] | significantly inhibited the biosynthesis of 12-HETE
significant inhibition | O=C(/C=C/c1ccc(O)c(O)c1)OCC(c1ccccc1)c1ccccc1 [Compound 19] | failed to significantly affect the biosynthesis of 12-HETE
